Data from patent publication US20110021440A1, “APOPTOTIC PATHWAY TARGETING FOR THE DIAGNOSIS AND TREATMENT OF CANCER” (UNIVERSITY OF MARYLAND, BALTIMORE, priority 2007, published 2011).
“Also recorded” adds a separate entry of the source. Peptide text beside a SMILES is read from it. * marks the point of attachment. Cbz = O=C(OCc1ccccc1)*

Tests used:
MCF10A cells [1] = assay: Apoptosis / cell death in MCF10A cells (PARP cleavage); type: cell-based, human; conditions: for cell death: 24 h, TRAIL 1 μg/mL, CHX 30 μg/mL, DOX 3 μg/mL, not shown; for apoptosis as assessed by PARP cleavage: 24 hours
Description: (§1) FIG. 1A relates to human mammary epithelial cells (MCF10A) grown for 24 h in the presence or absence of a proteasomal inhibitor (MG132, 5 μM). […] Lysates from Ramos cells are included as a positive control for Bik and parallel blotting for β-actin confirm equivalent levels of protein. FIG. 1B relates to Bik protein increases after forced cell rounding with the actin polymerization inhibitor, Latrunculin-A (LA, 5 μM for 24 h). Bik protein is low in standard growth media (GROW). […] Cell rounding may therefore act selectively to upregulate Bik rather than through a nonspecific apoptotic signal.
(§2) Several apoptotic stimuli were tested for their ability to induce Bik expression in MCF10A cells were evaluated (FIG. 7A). Compared to a Ramos positive control lysate, MCF10A cells express very low levels of Bik under normal growth conditions. […] Bik expression in MCF10A cells increased after treatment with Latrunculin-A (LA), an inhibitor of the actin cytoskeleton that causes cell rounding (Martin et al., Mol. Cell. Biol., 21:6529-6536 (2001)). Apoptosis caused by cell rounding and cytoskeletal disruption has been termed amorphosis (Martin et al., Biochim. Biophys. Acta., 1692:145-157 (2004)), and resistance to amorphosis is thought to contribute to metastatic potential by allowing tumor cells to tolerate the cell shape changes that occur during bloodborne dissemination (Martin et al., Oncogene, 23:4641-4645 (2004); Mehlen et al., Nat. Rev. Cancer, 6:449-458 (2006); Pinkas et al., Mol. Cancer. Res., 2:551-556 (2004)). […] Since Bik is induced by cell rounding, its loss in tumors may reduce their apoptotic sensitivity and yield a greater metastatic potential. In fact, reduced expression of Bik predicts increased nodal involvement in colorectal cancer (Bandres et al., Oncol. Rep., 12:287-292 (2004)). Conversely, forced expression of Bik inhibits systemic breast tumor growth (Zou et al., Cancer Res., 62:8-12 (2002)).

Bik protein [2] = assay: Western blotting of Bik protein in MCF10A cells; type: cell-based, human; conditions: 24 h
Description: as §1
(§3) FIG. 6 illustrates Bik protein is degraded by the proteasome but remains reduced in tumor cell lines. Protein lysates from control cells (Ramos), nontumorigenic human mammary epithelial cells (MCF10A) or 11 human breast tumor cell lines were immunoblotted for Bik and b-actin as a loading control. […] Bik protein remained low in the tumor cell lines, even in the presence of MG132.
(§4) FIG. 7 illustrates tumor lines with reduced Bik resist apoptosis by cytoskeletal disruption.
(§5) Bik values were normalized to amplification of GAPDH, which was highly consistent in all cell lines and dissociation curves confirmed specificity with a single major amplification product in each reaction type (FIG. 5B). Despite the detectable levels of mRNA, Bik protein levels were very low in the tumor lines and MCF10A cells under normal growth conditions. Since Bik can be degraded by the proteasome (Zhu et al., Oncogene, 24:4993-4999 (2005)), cells were treated with MG132 to inhibit the proteasome and increase detectable Bik levels (FIG. 6). […] Downregulation of Bik in MDA-MB-453 cells therefore occurs independently from mRNA expression. However, loss of Bik function as a common event in breast tumors continues to be supported by these finding.
as §2

[3] = test system: Bax- and Bak-deficient MEFs (DKO); conditions: cited from earlier work
Bik protein [4] = assay: Immunoblot of Bik protein in 11 human breast tumor cell lines; type: cell-based; conditions: +MG132 5 μM, 24 h; compared with MCF10A
Text: as §3, §5

[5] = test system: tubulin microtentacles of MDA-436 cells; assay: DIC imaging of tubulin microtentacles in detached breast tumor cells; type: cell-based; conditions: tetracaine 100 μM
Description: (§6) FIG. 23 illustrates methods used to image circulating tumor cells and microtentacles. Surgically-isolated blood vessels from mice are sutured to the ends of glass micropipettes to allow solution flow through the vessels. After endothelial labeling with Fluo-4 (green), MDA-436 breast tumor cells, stained with QDot-655 (red), were injected and allowed to circulate through the vessel. […] In the right panel the effects of microtentacle inhibitors are imaged with DIC microscopy. Detachment of vimentin-expressing breast tumor cell lines, like MDA-231 and MDA-436 (pictured, FIG. 23 D), stimulates the formation of rapidly-moving tubulin microtentacles (Whipple et al., “Vimentin filaments support extension of tubulin-based microtentacles in detached breast tumor cells”, Cancer Research, (2008), (under revision)). We added the kinesin inhibitor, tetracaine (100 μM) (Miyamoto et al., Biophys. J., 78:940-949 (2000)) and collected DIC images every 30 seconds (Yoon et al., “Microtentacles in detached breast tumor cells require kinesin motor activity”, manuscript in preparation (2008)). After approximately 10 minutes, tubulin microtentacles collapse dramatically (FIG. 23 E). This concentration of drug is non-toxic to these cells, even after 24 hours.

MDA-436 cells = assay: Toxicity of microtentacle inhibitors to breast tumor cells; type: cell-based; conditions: 100 μM, even after 24 hours
Description: as §6

BCRP protein [6] = assay: Western blotting of BCRP in MCF10A cells; type: cell-based, human; conditions: LA 5 μM, 24 h, rounded
Description: (§7) FIG. 12 illustrates cell rounding also upregulates the BCRP drug resistance protein. […] MCF10A mammary epithelial cells or MCF-7 and Bt-474 breast tumor cells were grown for 24 h in standard media (Control), serum-free conditions (DMEM) or forced cell rounding through inhibition of actin polymerization with Latrunculin-A (LA, 5 μM—Rounded). […] Levels of actin remain constant.

BCRP protein [7] = assay: Western blotting of BCRP in MCF-7 cells; type: cell-based, human; conditions: LA 5 μM, 24 h, rounded
Description: as §7

BCRP protein [8] = assay: Western blotting of BCRP in Bt-474 cells; type: cell-based, human; conditions: LA 5 μM, 24 h, rounded
Description: as §7

[9] = test system: MCF10A cells stably expressing Bcl-2 (10A-Bcl2); assay: Cell viability assay (XTT), 10A-Bcl2 cells; type: cell-based
Description: Viability was measured with XTT and each point represents the mean+/−S.D. for triplicate samples.

[10] = test system: MCF10A cells stably expressing Bcl-xL; assay: Cell viability assay (XTT), MCF10A cells expressing Bcl-xL; type: cell-based, human
Description: (§8) FIG. 13 illustrates cells expressing the survival proteins Bcl-2 or Bcl-xL are highly resistant to cell death induced by cell rounding (LA). […] Nearly 60% of cells overexpressing Bcl-xL remain viable even at concentrations of LA as high as 20 μM. […] Viability was measured with XTT and each point represents the mean+/−S.D. for triplicate samples.

breast tumor cell lines = assay: Cell viability assay (XTT), breast tumor cell lines; type: cell-based, human; conditions: tumor cell lines with reduced Bik; up to very high doses, 5 μM LA; listed as LA
Description: as §4
as §2, with “Conversely, forced expression of Bik inhibits systemic breast tumor growth (Zou et al., Cancer Res., 62:8-12 (2002)).” left out

Bik protein [11] = assay: Western blotting of Bik protein in MCF10A cells stably expressing Bcl-xL; type: cell-based, human; conditions: forced cell rounding, LA 5 μM, 24 h
Text: (§9) MCF10A or MCF-7 cells show comparably low levels of Bik. […] This increase in Bik is so strong that the moderate increases observed with LA in MCF10A cells (FIG. 7B) cannot even be detected here due to the short exposure times necessary to prevent oversaturating signal.
(§10) FIG. 15 illustrates apoptotically-resistant cell accumulate high levels of Bik when rounded. […] This increase in Bik is so strong that the moderate increases observed with LA in MCF10A cells (FIG. 7A) cannot even be detected here due to the short exposure times necessary to prevent oversaturating signal.

Bik protein [12] = assay: Western blotting of Bik protein in MCF10A cells stably expressing Bcl-2; type: cell-based, human; conditions: forced cell rounding, LA 5 μM, 24 h
Text: as §9, §10

MCF10A cells [13] = type: cell-based
Description: as §4, §8
FIG. 19 illustrates that YC137 remains toxic to normal cells (MCF10A). […] Such compounds would not be expected to be effective therapies due to likely side effects on normal tissues. If compounds were only toxic to rounded cells, that would be acceptable, since normal tissues are attached and not rounded.
as §2

[14] = LA 5 μM, TRAIL 1 μg/mL, CHX 30 μg/mL, DOX 3 μg/mL
[15] = LA 24 h, versus parental MCF10A

COc1cccc2c1C(=O)c1c(O)c3c(c(O)c1C2=O)C[C@@](O)(C(=O)CO)C[C@@H]3O[C@H]1C[C@H](N)[C@H](O)[C@H](C)O1 [Doxorubicin]
cell death (MCF10A cells [1]): causes cell death comparable to LA | apoptosis as assessed by PARP cleavage (MCF10A cells [1]): does induce apoptosis | Bik protein (Western blotting) (Bik protein [2]; [14]): did not induce significant expression of Bik; also recorded: do not increase Bik levels; also recorded: did not increase Bik protein

BH3I-1
toxicity against cells that lack Bax and Bak [3]: toxic against cells that lack Bax and Bak

CC(C)C[C@@H](C=O)NC(=O)[C@H](CC(C)C)NC(=O)[C@H](CC(C)C)NC(=O)OCc1ccccc1 [MG132] (Cbz-Leu-Leu-Leu-aldehyde)
Bik protein (immunoblot) (Bik protein [4]): significantly lower levels of Bik protein; also recorded: remained low | Bik protein (Western blotting) (Bik protein [2]; MG132 5 μM): strong induction of Bik protein; also recorded: strongly upregulated; also recorded: strongly increased

CCCCNc1ccc(C(=O)OCCN(C)C)cc1 [tetracaine]
time to collapse of tubulin microtentacles [5]: approximately 10 minutes | toxicity to the cells (MDA-436 cells): non-toxic

C/C1=C/C(=O)O[C@@H]2C[C@@H](CC[C@H](C)/C=C\C=C\CC1)O[C@@](O)([C@@H]1CSC(=O)N1)C2 [Latrunculin-A]
BCRP protein (Western blotting) (BCRP protein [6]): increases BCRP protein | BCRP protein (Western blotting) (BCRP protein [7]): increases BCRP protein | BCRP protein (Western blotting) (BCRP protein [8]): not | resistance to apoptosis induced by cell rounding (XTT) [9, 15]: significantly resistant | tolerated doses of LA ([9]; cell rounding): ≤ 20 µM | resistance to apoptosis induced by cell rounding (XTT) [10, 15]: significantly resistant | cells remaining viable (XTT) ([10]; LA as high as 20 μM, 24 h): ~60% | resistance to LA-induced apoptosis (XTT viability) (breast tumor cell lines): highly resistant to LA-induced apoptosis; also recorded: significant resistance to apoptosis | Bik protein (Western blotting) (Bik protein [2]; [14]): increases; also recorded: did increase Bik significantly | Bik protein (Western blotting) (Bik protein [11]): dramatic increases in Bik protein | Bik protein (Western blotting) (Bik protein [12]): dramatic increases in Bik protein | LA concentration at which cell death is maximal (MCF10A cells [13]): 5 µM | cell viability (XTT) (MCF10A cells [13]; LA 24 h, doses as low as 2.5 μM): drops significantly

C[C@@H]1C[C@@H]([C@H](O)CC2CC(=O)NC(=O)C2)C(=O)[C@@H](C)C1 [Cycloheximide]
cell death (MCF10A cells [1]): causes cell death comparable to LA | apoptosis as assessed by PARP cleavage (MCF10A cells [1]): does induce apoptosis | Bik protein (Western blotting) (Bik protein [2]; [14]): do not increase Bik levels | Bik protein (Western blotting) (Bik protein [2]; LA 5 μM, TRAIL 1 μg/mL, CHX 30 μg/mL, DOX 3 μg/mL, listed as cycloheximide): did not induce significant expression of Bik; also recorded: did not increase Bik protein

COC(=O)N[C@@H](CCSC)C(=O)Oc1ccc(Nc2nc3c(s2)C(=O)c2ccccc2C3=O)cc1 [YC-137]
decrease in cell viability (XTT) compared to YC-137 alone ([9]; 1 μg/ml YC-137 combined with 2.5 μM LA): greater than 2 fold | cell viability (XTT) compared to YC-137 alone ([9]; YC-137 1 μg/ml or 2.5 μg/ml with LA 2.5 μM, 24 h, P<0.05): significant decrease in cell viability | doses at which YC-137 causes toxicity on its own ([9]; YC-137 alone): higher than 1 μM | effect on rounded versus attached cells ([9]; YC-137 at lower levels): affects rounded cells more than attached cells | cell death on combining with cell rounding ([9]; YC-137 with LA 2.5 μM, 24 h): increases cell death | toxicity to attached and rounded cells (MCF10A cells [13]): toxic to both attached and rounded MCF10A cells | viability (XTT) (MCF10A cells [13]): lose viability | cell death on combining with cell rounding (MCF10A cells [13]; YC-137 with LA 2.5 μM, 24 h): increases cell death

B1: TRAIL: apoptotic stimulus (protein, UniProt P50591 1-281, looked up)
Tumor necrosis factor ligand …: MAMMEVQGGPSLGQTCVLIVIFTVLLQSLCVAVTYVYFTNELKQMQDKYSKSGIACFLKEDDSYWDPNDEESMNSPCWQVKWQLRQLVRKMILRTSEETISTVQEKQQNISPLVRERGPQRVAAHITGTRGRSNTLSSPNSKNEKALGRKINSWESSRSGHSFLSNLHLRNGELVIHEKGFYYIYSQTYFRFQEEIKENTKNDKQMVQYIYKYTSYPDPILLMKSARNSCWSKDAEYGLYSIYQGGIFELKENDRIFVSVTNEHLIDMDHEASFFGAFLVG
cell death (MCF10A cells [1]): causes cell death comparable to LA | apoptosis as assessed by PARP cleavage (MCF10A cells [1]): does induce apoptosis | Bik protein (Western blotting) (Bik protein [2]; [14]): did not induce significant expression of Bik; also recorded: do not increase Bik levels; also recorded: did not increase Bik protein
